Source: patent publication US20260167619A2, “INDOLINE COMPOUNDS AND DERIVATIVES AS EGFR INHIBITORS” (BeOne Medicines I GmbH, priority 2020, published 2026)
pIC50: −log10 of the molar value.

Experiments:
[1] = biological target: T1, EGFR (aa668-1210, Invitrogen) (Homo sapiens, UniProt P00533); experiment: Biochemical EGFR inhibition assay (TR-FRET), wild-type EGFR; details: ATP at Km, 15 min pre-incubation, 60 min reaction; read-out: WT (Km ATP) IC50
T1 construct: EGFR (aa668-1210, Invitrogen); purchased Invitrogen
T1 sequence (P00533 668-1210): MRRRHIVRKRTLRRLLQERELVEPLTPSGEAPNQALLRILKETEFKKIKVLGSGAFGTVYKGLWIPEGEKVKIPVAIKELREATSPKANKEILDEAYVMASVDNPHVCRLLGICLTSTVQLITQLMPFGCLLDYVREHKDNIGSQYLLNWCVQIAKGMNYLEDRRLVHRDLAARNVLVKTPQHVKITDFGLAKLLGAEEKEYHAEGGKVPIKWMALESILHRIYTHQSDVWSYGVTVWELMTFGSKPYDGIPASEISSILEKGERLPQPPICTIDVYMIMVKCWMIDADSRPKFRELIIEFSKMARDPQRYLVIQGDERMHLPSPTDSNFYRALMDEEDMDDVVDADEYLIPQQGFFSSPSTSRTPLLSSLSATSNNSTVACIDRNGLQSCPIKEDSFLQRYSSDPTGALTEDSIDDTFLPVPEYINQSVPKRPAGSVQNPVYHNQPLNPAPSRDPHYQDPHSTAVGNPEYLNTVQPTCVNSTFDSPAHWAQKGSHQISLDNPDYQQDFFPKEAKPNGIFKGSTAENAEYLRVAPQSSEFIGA
Outline: (§1)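 Biotin-poly GT phosphorylation detected with Eu-cryptate anti-phosphotyrosine (PT66) and XL665-streptavidin after EDTA/KF stop, 665/620 nm ratio. Enzyme and compound preincubated 15 min, then ATP at Km added for 60 min at room temperature. Four-parameter logistic fit gives IC50.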

BaF3-Del_TM_CS cells = BaF3-Del_TM_CS cells (Homo sapiens, UniProt P00533, T790M/C797S, cells depend on it, form not given); experiment: Cell antiproliferation assay (CellTiter-Glo), BaF3-Del_TM_CS; type: cell-based; details: 48 h treatment, read-out: BaF3-Del_TM_CS IC50
Sequence of BaF3-Del_TM_CS cells (P00533 with tags, fused parts or gaps DEL746-750/T790M/C797S, form open): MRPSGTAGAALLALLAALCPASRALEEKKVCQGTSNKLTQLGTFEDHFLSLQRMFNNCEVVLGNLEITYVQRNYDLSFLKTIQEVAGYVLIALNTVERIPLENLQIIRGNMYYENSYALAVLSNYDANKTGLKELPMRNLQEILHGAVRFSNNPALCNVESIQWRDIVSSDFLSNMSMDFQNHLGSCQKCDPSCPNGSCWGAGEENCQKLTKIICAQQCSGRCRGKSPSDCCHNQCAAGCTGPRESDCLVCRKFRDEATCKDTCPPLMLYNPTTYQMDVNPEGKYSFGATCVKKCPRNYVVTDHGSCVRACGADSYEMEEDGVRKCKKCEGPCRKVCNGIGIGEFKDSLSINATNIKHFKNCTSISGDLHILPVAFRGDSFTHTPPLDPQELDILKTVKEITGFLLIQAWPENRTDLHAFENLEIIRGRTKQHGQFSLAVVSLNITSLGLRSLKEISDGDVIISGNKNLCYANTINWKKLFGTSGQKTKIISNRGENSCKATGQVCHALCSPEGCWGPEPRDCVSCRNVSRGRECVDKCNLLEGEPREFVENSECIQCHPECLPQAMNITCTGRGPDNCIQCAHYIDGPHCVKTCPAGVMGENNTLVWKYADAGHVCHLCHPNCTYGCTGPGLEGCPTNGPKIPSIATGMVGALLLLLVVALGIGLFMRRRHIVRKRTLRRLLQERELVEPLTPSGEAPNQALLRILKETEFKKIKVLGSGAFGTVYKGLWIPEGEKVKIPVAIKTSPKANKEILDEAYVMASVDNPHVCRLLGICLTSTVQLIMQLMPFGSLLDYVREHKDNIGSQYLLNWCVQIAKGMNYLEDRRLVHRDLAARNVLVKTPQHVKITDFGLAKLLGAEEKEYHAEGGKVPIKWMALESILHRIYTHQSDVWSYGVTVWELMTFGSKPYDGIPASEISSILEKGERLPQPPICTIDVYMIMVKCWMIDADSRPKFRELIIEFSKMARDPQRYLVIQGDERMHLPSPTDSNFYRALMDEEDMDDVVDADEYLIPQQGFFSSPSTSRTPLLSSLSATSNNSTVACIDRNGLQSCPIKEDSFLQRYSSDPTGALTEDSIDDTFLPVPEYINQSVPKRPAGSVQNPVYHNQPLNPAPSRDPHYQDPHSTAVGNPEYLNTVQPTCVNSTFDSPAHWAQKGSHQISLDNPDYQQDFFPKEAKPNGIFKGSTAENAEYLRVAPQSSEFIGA
Method: (§2) BaF3 cells are treated with compounds diluted in 0.2% DMSO, dilution is done according to the following protocol: (1) make 500× stock solution in DMSO from 5 mM by 5-fold dilution, total 8 doses were included; (2) make 10× solution in cell culture medium by transferring 2 μl 500× stock solution into 98 μl medium; (3) 10 μl of 10× solution is added to cells and incubate for 48 h.
(§3) After 48 h treatment, add 30 μl CellTiter-Glo reagent[CellTiter-Glo® 2.0, (Promega, Cat #G9242)] to each well; seal the plate and incubate 2 min at room temperature on a plate shaker; Allow the plate to incubate at room temperature for 10 minutes to stabilize the luminescent signal. Record luminescence on BMG PheraStar with luminescence protocol.
(§4) The IC50 value of a compound can be obtained by fitting the following equation
(§5) Wherein, X and Y are known values, and IC50, Hillslope, Top and Bottom are the parameters obtained by fitting with software. Y is the inhibition percentage (calculated from the equation), X is the concentration of the compound; IC50 is the concentration of the compound when the 50% inhibition is reached. The smaller the IC50 value is, the stronger the inhibitory ability of the compound is. Vice versa, the higher the IC50 value is, the weaker the ability the inhibitory ability of the compound is; Hillslope represents the slope of the fitted curve, generally around 1 *; Bottom represents the minimum value of the curve obtained by data fitting, which is generally 0%±20%; Top represents the maximum value of the curve obtained by data fitting, which is generally 100%±20%. The experimental data were fitted by calculating and analyzing with Dotmatics data analysis software.

BaF3-LR_TM_CS cells = BaF3-LR_TM_CS cells (Homo sapiens, UniProt P00533, T790M/C797S/L858R, cells depend on it); experiment: Cell antiproliferation assay (CellTiter-Glo), BaF3-LR_TM_CS; type: cell-based; details: 48 h treatment, read-out: BaF3-LR_TM_CS IC50
Sequence of BaF3-LR_TM_CS cells (P00533 whole entry T790M/C797S/L858R): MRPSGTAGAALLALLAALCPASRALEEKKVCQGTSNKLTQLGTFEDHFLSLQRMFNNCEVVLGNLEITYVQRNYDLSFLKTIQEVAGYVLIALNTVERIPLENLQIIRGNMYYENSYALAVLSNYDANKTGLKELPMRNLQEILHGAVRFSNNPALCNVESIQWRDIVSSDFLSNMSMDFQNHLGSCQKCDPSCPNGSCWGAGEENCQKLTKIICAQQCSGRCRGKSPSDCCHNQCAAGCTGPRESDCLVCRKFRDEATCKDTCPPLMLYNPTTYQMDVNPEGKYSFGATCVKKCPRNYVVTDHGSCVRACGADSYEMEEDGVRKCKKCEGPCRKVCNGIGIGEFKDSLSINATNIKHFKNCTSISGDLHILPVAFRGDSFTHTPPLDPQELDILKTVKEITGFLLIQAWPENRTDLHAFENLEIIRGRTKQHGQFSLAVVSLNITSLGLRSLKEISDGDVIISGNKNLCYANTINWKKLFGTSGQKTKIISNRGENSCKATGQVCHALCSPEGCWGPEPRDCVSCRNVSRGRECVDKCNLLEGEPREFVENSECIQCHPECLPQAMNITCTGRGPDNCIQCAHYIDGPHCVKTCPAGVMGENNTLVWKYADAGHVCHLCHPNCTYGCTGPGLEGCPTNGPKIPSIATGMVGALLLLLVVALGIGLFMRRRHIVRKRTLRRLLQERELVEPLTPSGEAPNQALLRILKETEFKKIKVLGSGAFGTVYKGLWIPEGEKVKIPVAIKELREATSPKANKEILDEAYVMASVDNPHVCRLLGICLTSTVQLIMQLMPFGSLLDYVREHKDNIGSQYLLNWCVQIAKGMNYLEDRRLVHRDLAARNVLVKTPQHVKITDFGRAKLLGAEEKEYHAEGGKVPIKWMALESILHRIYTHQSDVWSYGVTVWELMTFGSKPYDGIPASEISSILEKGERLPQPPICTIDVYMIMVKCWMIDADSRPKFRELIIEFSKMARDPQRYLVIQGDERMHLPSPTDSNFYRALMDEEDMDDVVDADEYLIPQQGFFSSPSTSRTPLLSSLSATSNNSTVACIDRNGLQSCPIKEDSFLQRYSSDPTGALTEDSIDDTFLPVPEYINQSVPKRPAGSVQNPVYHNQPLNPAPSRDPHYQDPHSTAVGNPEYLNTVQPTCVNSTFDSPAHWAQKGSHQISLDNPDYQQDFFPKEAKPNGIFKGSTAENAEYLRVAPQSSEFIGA
Method: as §2, §3, §4, §5

[2] = biological target: T2, EGFR(L858R_T790M_C797S) (aa695-end, Invitrogen) (Homo sapiens, UniProt P00533, C797S/L858R/T790M); experiment: Biochemical EGFR inhibition assay (TR-FRET), L858R/T790M/C797S mutant; details: ATP at Km, 15 min pre-incubation, 60 min reaction; read-out: LR_TM_CS (Km ATP) IC50
T2 construct: purchased Invitrogen
T2 sequence (P00533 695-1210 T790M/C797S/L858R): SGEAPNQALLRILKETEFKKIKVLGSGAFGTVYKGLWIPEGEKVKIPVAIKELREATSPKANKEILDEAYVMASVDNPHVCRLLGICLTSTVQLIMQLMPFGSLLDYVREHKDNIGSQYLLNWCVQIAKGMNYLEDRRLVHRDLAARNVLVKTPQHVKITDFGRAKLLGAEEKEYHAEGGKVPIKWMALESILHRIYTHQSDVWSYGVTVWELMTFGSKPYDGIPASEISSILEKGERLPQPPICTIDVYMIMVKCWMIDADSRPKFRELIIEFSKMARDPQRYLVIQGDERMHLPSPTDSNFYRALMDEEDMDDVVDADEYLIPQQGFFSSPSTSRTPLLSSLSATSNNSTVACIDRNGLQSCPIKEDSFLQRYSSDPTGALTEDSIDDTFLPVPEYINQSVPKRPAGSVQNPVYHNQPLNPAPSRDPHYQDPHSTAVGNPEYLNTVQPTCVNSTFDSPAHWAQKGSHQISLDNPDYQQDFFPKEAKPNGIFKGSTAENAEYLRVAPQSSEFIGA
Outline: as §1

BaF3-WT cells = BaF3-WT cells (Homo sapiens, UniProt P00533); experiment: Cell antiproliferation assay (CellTiter-Glo), BaF3-WT; type: cell-based; details: 48 h treatment, read-out: BaF3-WT IC50
Sequence of BaF3-WT cells (P00533 whole entry, change not shown): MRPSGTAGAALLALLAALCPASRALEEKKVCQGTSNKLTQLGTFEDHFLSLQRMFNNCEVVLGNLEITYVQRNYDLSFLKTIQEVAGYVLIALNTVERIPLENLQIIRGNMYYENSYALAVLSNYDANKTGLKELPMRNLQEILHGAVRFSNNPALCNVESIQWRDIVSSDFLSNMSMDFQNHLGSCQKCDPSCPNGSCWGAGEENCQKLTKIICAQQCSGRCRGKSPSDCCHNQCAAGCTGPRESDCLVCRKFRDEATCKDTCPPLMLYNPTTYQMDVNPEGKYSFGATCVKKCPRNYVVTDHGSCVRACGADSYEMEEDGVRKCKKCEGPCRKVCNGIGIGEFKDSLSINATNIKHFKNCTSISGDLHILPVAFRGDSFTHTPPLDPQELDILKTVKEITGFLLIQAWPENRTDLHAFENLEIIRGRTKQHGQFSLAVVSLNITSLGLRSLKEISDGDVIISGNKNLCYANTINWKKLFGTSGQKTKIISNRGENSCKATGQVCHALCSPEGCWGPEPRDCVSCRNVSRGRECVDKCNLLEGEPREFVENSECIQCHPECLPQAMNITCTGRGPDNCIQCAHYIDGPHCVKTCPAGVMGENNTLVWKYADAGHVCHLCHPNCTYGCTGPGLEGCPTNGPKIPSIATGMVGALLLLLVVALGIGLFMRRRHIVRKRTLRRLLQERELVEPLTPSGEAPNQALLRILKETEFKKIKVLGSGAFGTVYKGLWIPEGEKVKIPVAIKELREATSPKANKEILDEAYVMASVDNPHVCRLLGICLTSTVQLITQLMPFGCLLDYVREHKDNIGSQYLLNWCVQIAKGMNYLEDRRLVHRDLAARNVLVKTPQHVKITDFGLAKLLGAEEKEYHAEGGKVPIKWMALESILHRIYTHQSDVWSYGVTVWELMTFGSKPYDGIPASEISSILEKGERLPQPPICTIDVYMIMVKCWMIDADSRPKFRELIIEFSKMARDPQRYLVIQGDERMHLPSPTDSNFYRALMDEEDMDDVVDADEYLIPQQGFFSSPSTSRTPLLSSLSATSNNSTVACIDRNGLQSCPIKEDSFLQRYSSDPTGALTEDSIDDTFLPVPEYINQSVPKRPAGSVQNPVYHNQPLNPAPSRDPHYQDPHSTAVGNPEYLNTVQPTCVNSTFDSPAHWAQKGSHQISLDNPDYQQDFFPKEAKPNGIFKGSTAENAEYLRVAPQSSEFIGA
Method: as §2, §3, §4, §5

[3] = biological target: EGFR(Dell9_T790M_C797S) (aa 669-1210, in house) (Homo sapiens, UniProt P00533, T790M/C797S, form not given); experiment: Biochemical EGFR inhibition assay (TR-FRET), Del19/T790M/C797S mutant; details: ATP at Km, 15 min pre-incubation, 60 min reaction; read-out: Del_TM_CS (Km ATP) IC50
Outline: as §1

Row | pIC50 [1] | GI50 (BaF3-Del_TM_CS cells) [µM] | GI50 (BaF3-LR_TM_CS cells) [µM] | pIC50 [2] | GI50 (BaF3-WT cells) [µM] | pIC50 [3] | SMILES
1 | 7.55 | 0.0256 | 0.0767 | 9.33 | 1.69 | 9.11 | COc1cc(N2CCC(N(C)C)CC2)c(C)cc1Nc1nc(Nc2cccc3c2N(S(C)(=O)=O)CC3)c2cc[nH]c2n1 [Example 103, N^2-(4-(4-(dimethylamino)piperidin-1-yl)-2-methoxy-5-methylphenyl)-N^4-(1-(methylsulfonyl)indolin-7-yl)-7H-pyrrolo[2,3-d]pyrimidine-2,4-diamine]
2 | 6.83 | 0.349 | 0.459 | 8.07 | 1.2 | 8.06 | COc1cc(N2CCC(N3CCN(C)CC3)CC2)ccc1Nc1nc(Nc2cccc3c2N(S(C)(=O)=O)CC3)c2sccc2n1 [Example 75, N^2-(2-methoxy-4-(4-(4-methylpiperazin-1-yl)piperidin-1-yl)phenyl)-N^4-(1-(methylsulfonyl)indolin-7-yl)thieno[3,2-d]pyrimidine-2,4-diamine]
3 | 7.55 | 0.00958 | 0.0838 | 9.10 | 1.96 | 8.85 | COc1cc(N2CCC(N3CCN(C)CC3)CC2)c(Cl)cc1Nc1nc(Nc2cccc3c2N(S(C)(=O)=O)CC3)c2cc[nH]c2n1 [Example 95, N^2-(5-chloro-2-methoxy-4-(4-(4-methylpiperazin-1-yl)piperidin-1-yl)phenyl)-N^4-(1-(methylsulfonyl)indolin-7-yl)-7H-pyrrolo[2,3-d]pyrimidine-2,4-diamine]
4 | 5.14 | 0.707 | 1.04 | 7.38 | 1.86 | 7.43 | CCN1CCN(C2CCN(c3ccc(Nc4nc(Nc5ccc(F)c6c5N(S(C)(=O)=O)CC65CCC5)c5cc[nH]c5n4)cc3F)CC2)CC1 [Example 83, N^2-(4-(4-(4-ethylpiperazin-1-yl)piperidin-1-yl)-3-fluorophenyl)-N^4-(4′-fluoro-1′-(methylsulfonyl)spiro[cyclobutane-1,3′-indolin]-7′-yl)-7H-pyrrolo[2,3-d]pyrimidine-2,4-diamine]
5 | 7.89 | 0.158 | 0.294 | 8.89 | 0.897 | 8.21 | COc1cc(N2CCC(N3CCN(C)CC3)CC2)ccc1Nc1ncc(Cl)c(Nc2cccc3c2N(S(=O)(=O)N(C)C)CC3)n1 [Example 13, 7-((5-chloro-2-((2-methoxy-4-(4-(4-methylpiperazin-1-yl)piperidin-1-yl)phenyl)amino)pyrimidin-4-yl)amino)-N,N-dimethylindoline-1-sulfonamide]
6 | 8.32 | 0.0186 | 0.0424 | 9.60 | 0.372 | 9.80 | CN(C)C1CCN(c2ccc(Nc3ncc(Br)c(Nc4cccc5c4N(S(C)(=O)=O)CC5)n3)c3c2OCCO3)CC1 [Example 54, 5-bromo-N^2-(8-(4-(dimethylamino)piperidin-1-yl)-2,3-dihydrobenzo[b][1,4]dioxin-5-yl)-N^4-(1-(methylsulfonyl)indolin-7-yl)pyrimidine-2,4-diamine]
7 | 6.97 | 0.0383 | 0.0613 | 8.92 | 0.394 | 8.80 | CN1CCN(C2CCN(c3ccc(Nc4nc(Nc5cccc6c5N(S(C)(=O)=O)CC6)c5cc[nH]c5n4)c4c3CCO4)CC2)CC1 [Example 125, N^2-(4-(4-(4-methylpiperazin-1-yl)piperidin-1-yl)-2,3-dihydrobenzofuran-7-yl)-N^4-(1-(methylsulfonyl)indolin-7-yl)-7H-pyrrolo[2,3-d]pyrimidine-2,4-diamine]
8 | 8.74 | 0.0539 | 0.0816 | 9.21 | 0.457 | 9.24 | COc1cc(N2CCC(N3CCN(C)CC3)CC2)ccc1Nc1ncc(Cl)c(Nc2cccc3c2N(S(=O)(=O)C2CC2)CC3)n1 [Example 7, 5-chloro-N^4-(1-(cyclopropylsulfonyl)indolin-7-yl)-N^2-(2-methoxy-4-(4-(4-methylpiperazin-1-yl)piperidin-1-yl)phenyl)pyrimidine-2,4-diamine]
9 | 9.26 | 0.0482 | 0.152 | 10.00 | 0.635 | 9.89 | COc1cc(N2CCC(N3CCN(C)CC3)CC2)ccc1Nc1ncc(Cl)c(Nc2ccc(F)c3c2N(S(C)(=O)=O)CC3)n1 [Example 1, 5-chloro-N^4-(4-fluoro-1-(methylsulfonyl)indolin-7-yl)-N^2-(2-methoxy-4-(4-(4-methylpiperazin-1-yl)piperidin-1-yl)phenyl)pyrimidine-2,4-diamine]
10 | 7.43 | 0.453 | 0.377 | 8.26 | 2.28 | 7.42 | COc1cc(N2CCC(N3CCN(C)CC3)CC2)ccc1Nc1ncc(Cl)c(Nc2cccc3c2N(S(=O)(=O)CC2CC(F)(F)C2)CC3)n1 [Example 11, 5-chloro-N^4-(1-(((3,3-difluorocyclobutyl)methyl)sulfonyl)indolin-7-yl)-N^2-(2-methoxy-4-(4-(4-methylpiperazin-1-yl)piperidin-1-yl)phenyl)pyrimidine-2,4-diamine]
11 | 7.74 | 0.0083 | 0.062 | 9.54 | 0.388 | 9.48 | CCN1CCN(C2CCN(c3ccc(Nc4nc(Nc5cccc6c5N(S(C)(=O)=O)CC6)c5cc[nH]c5n4)cc3F)CC2)CC1 [Example 77, N^2-(4-(4-(4-ethylpiperazin-1-yl)piperidin-1-yl)-3-fluorophenyl)-N^4-(1-(methylsulfonyl)indolin-7-yl)-7H-pyrrolo[2,3-d]pyrimidine-2,4-diamine]
12 | 6.24 | 0.0573 | 0.0938 | 8.28 | 1.79 | 8.31 | COc1cc(N2C[C@@H](C)N(C)[C@@H](C)C2)c(C)cc1Nc1nc(Nc2cccc3c2N(S(C)(=O)=O)CC3)c2cc[nH]c2n1 [Example 106, N^2-(2-methoxy-5-methyl-4-((3S,5R)-3,4,5-trimethylpiperazin-1-yl)phenyl)-N^4-(1-(methylsulfonyl)indolin-7-yl)-7H-pyrrolo[2,3-d]pyrimidine-2,4-diamine]
13 | 6.51 | 0.971 | 1.29 | 6.79 | 2.32 | 6.80 | COc1cc(N2CCC(N3CCN(C)CC3)CC2)ccc1Nc1ncc(Cl)c(Nc2cc(C)cc3c2N(S(C)(=O)=O)CC3)n1 [Example 5, 5-chloro-N^2-(2-methoxy-4-(4-(4-methylpiperazin-1-yl)piperidin-1-yl)phenyl)-N^4-(5-methyl-1-(methylsulfonyl)indolin-7-yl)pyrimidine-2,4-diamine]
14 | 8.85 | 0.00876 | 0.0143 | 9.62 | 0.193 | 9.23 | CNS(=O)(=O)N1CCc2cccc(Nc3nc(Nc4ccc(N5CCC(N6CCN(C)CC6)CC5)cc4OC)ncc3Cl)c21 [Example 14, 7-((5-chloro-2-((2-methoxy-4-(4-(4-methylpiperazin-1-yl)piperidin-1-yl)phenyl)amino)pyrimidin-4-yl)amino)-N-methylindoline-1-sulfonamide]
